Details of series [1]: method as in PMID 4650364. Conditions: urine at 8 h after a single oral dose of 10 mg/kg BW TMP; cited from earlier work.
Series [2] has as its system tester strain TA100 and TA98. Also noted: method as in PMID 1922158, PMID 26397222. To be noted: cited from earlier work.
Series [3] can be described thus: in vivo. Conditions: for Radioactive compound detected/identified in plasma / Concentration in plasma: single oral ^3H-DVD 10 mg/kg BW; for Concentration in plasma: pigs. From the text:
(§1) Four healthy castrated male pigs (Landrace/Doric Cross, 60-d-old, 30 ± 2 kg) were supplied by the China Breeding Pig Testing Center of Huazhong Agricultural University (Wuhan, China). Six healthy Cobb 500 broiler chickens (three female and three male, 40-d-old, 2.5 ± 0.1 kg) were purchased from Wuhan Chia Tai chicken farm (Wuhan, China). All animals were maintained under standard environmental conditions by using normal husbandry practices and were acclimatized for 1 week. The animals were fed a commercial standard diet and water ad libitum, but were fasted overnight before dose administration and up to 4 h after dose administration. All animal care and experimental protocols were conducted in accordance with the Guide for the Care and Use of Laboratory Animals of Hubei Provincial Laboratory Animal Public Service Center (permit number SYXK 2013-0044) and approved by the Ethics Committee of Huazhong Agricultural University.
(§2) Pigs (n = 4) and chickens (n = 6) were weighed individually and given a single dose of 10 mg/kg BW ^3H-DVD with a specific activity of 0.23 Ci/g. The ^3H-DVD solution was prepared by accurately mixing ^3H-DVD and non-labeled DVD at a mass ratio of 1:96 and diluting it with 0.5% methylcellulose to make a homogeneous suspension with a concentration of 25 mg/ml. The suspension was administered by gastric gavage using a soft stomach tube connected to an injection syringe. About 1.5 ml of blood was collected into heparinized tubes from the anterior venae cavae of pig and the wing veins of chicken at different time points. For pigs, blood was collected before administration and 0.17, 0.33, 0.5, 0.67, 1, 1.5, 2, 4, 6, 8, 12, 24, 48, 72, 168, and 336 h after oral treatment. For chickens, blood was collected before administration and 0.25, 0.5, 1, 1.5, 2, 4, 6, 8, 12, 24, 36, 48, 72, 168, and 336 h after oral dosing. Plasma samples were collected after centrifugation at 4°C and 2,254 × g for 10 min and were stored at −20°C until analysis.
(§3) Plasma samples were completely thawed at room temperature. Each sample was divided into two parts, one was used for the assay of total radioactivity, and the other was subjected to a MCX Solid Phase Extraction (SPE) procedure for the qualitative and quantitative analysis of DVD-related metabolites.
(§4) The total radioactivity assay was conducted in accordance with a previous study with a few modifications ([20]). Briefly, 50 μl of plasma was mixed with 50 μl of 0.1 mol/L EDTA-Na and 50 μl of 30% H2O2 at 50°C in a shaking water bath for 2 h for bleaching. The obtained transparent liquid was mixed with 10 ml of Ultima Gold™ scintillation fluid and was analyzed directly using a Packard Tri-Carb 2900 TR liquid scintillation counter (PerkinElmer Life and Analytical Sciences, Waltham, MA, USA). The scintillation counter data were automatically corrected for counting efficiency using an instrument-stored quench curve that was drawn with a series of sealed quenched ^14C standards. All the samples were analyzed in duplicate and the actual radioactivity of each sample was calculated by subtracting the […].
(§5) A 500 μl plasma sample was adjusted to pH 2.8–3.2 with 1 ml of 1 M hydrochloric acid (HCl), and a […] aliquot of the mixture was placed in a MCX cartridge preconditioned with 3 ml of methanol followed by 3 ml of 0.1 mol/L HCl water. The cartridge was washed with 3 ml of 0.1 mol/L HCl water and then eluted with 5 ml NH4OH/methanol (8:92, v:v). The effluent was concentrated to dryness under a stream of nitrogen at 40°C. The residue was reconstituted in 250 μl of methanol-water (1:9, v:v) before injection onto the LC-v.ARC/MS-IT-TOF system for metabolite identification and quantitation.
(§6) Measurement of total radioactivity in each sample was conducted using a Packard Tri-Carb 2900 TR liquid scintillation counter. The detection time was 10 min for two cycles.

On the set-up of series [4]: method as in PMID 26212255. To be noted: cited from earlier work.
For series [5] the following is noted: chickens, cited from earlier work.
Series [6] is described as follows: in vivo.
Description: as §1, §2, §3, §4, §5, §6

The conditions of series [7]: pigs, cited from earlier work.
On the set-up of series [8]: method as in PMID 22161732. To be noted: pig liver microsomes incubated with DVD; cited from earlier work. A general note: Liver microsomes are vesicles of endoplasmic reticulum, rich in cytochrome P450 enzymes.
Where [9] appears, read: male, Landrace/Doric Cross, pig, in vivo, po, 10 mg/kg.
[10] abbreviates: pig plasma, oral ^3H-DVD 10 mg/kg BW.
Where [11] appears, read: HPLC-UV method, previous studies.
Setting [12] is: both, Cobb 500 broiler, in vivo, po, 10 mg/kg.

“Also recorded” adds a separate entry of the source. Like-named read-outs stand apart in the source and are kept apart here.

Results on four molecules are retold here after publication PMC8803906, “Metabolite Identification and Pharmacokinetic Behavior of Diaveridine in the Plasma of Pigs and Chickens Based on Radioactive Tracing Coupled With LC/MS-IT-TOF Assay” (Frontiers in Veterinary Science, 2022).

For orientation: AUC(0-inf) means total exposure, with the tail of the curve extrapolated. Read a low AUC(0-inf) as low exposure. By Cmax is commonly meant the highest concentration seen after dosing. By MRT inf is commonly meant the average time that molecules of a dose stay in the body. One may read the MRT last as a mean duration of stay, worked out from the concentration-time curve. One may read the half-life as how long it takes for the measured level to halve. Low readings indicate fast loss, high ones slow loss. As a reminder, the Tmax is the time at which the peak concentration occurs.

Regarding `COc1cc(Cc2cnc(N)nc2N)cc(O)c1OC` [3′-demethylated TMP], the Content in urine in series [1] is greater than 30%.

`COc1cc(Cc2cnc(N)nc2N)cc(OC)c1O` [4′-demethylated TMP]: the Content in urine in series [1] is reported as 1%.

For the molecule `COc1ccc(Cc2cnc(N)nc2N)cc1OC` [D0, 5-[(3′,4′-dimethoxyphenyl)methyl]-2,4-pyrimidinediamine, reference compound], the Mutagenicity entry is reported as “mutagenic” in series [2] (strain TA100 after metabolic activation with hamster S9 mix); “not mutagenic” in series [2] (tester strain TA100 and TA98, presence and absence of rat S9 mix). Also, the “Tmax (time to Cmax from time zero)” value in the series “in vivo [3]” (male, Landrace/Doric Cross, pig, in vivo) was 2.0 ± 0.0 h; in the series “in vivo [3]” (setting [10]), 2 h; in the series “in vivo [6]” (both, Cobb 500 broiler, chicken, in vivo), 2.0 ± 0.0 h; in “in vivo [6]” (chicken plasma, oral ^3H-DVD 10 mg/kg BW), 2 h. Moreover, the concentration at 168 h in “in vivo [3]” (male, Landrace/Doric Cross, pig, in vivo, 10 mg/kg BW) turned out to be 60 ± 20 ng/mL; in “in vivo [6]” (both, Cobb 500 broiler, chicken, in vivo, 10 mg/kg BW), 90 ± 30 ng/mL. The AUC0−∞ in “in vivo [3]” (male, Landrace/Doric Cross, pig, in vivo, po) was found to be 33.9 µg·h/mL; in “in vivo [6]” (both, Cobb 500 broiler, chicken, in vivo, po), 55.3 µg·h/mL. The AUC(0-inf) in the series “in vivo [3]” (setting [9]) worked out at 33900 ± 5810 ng·h/mL; in “in vivo [6]” (setting [12]), 55300 ± 11500 ng·h/mL. For the same molecule, the “ClB (total body clearance)” value in the series “in vivo [3]” (setting [9]) came to 0.30 ± 0.05 L/h/kg; in the series “in vivo [6]” (setting [12]), 0.19 ± 0.04 L/h/kg. Also, the Cmax in the series “in vivo [3]” (setting [9]) was 490 ± 20 ng/mL; in series [5] (setting [11]) it was 1.45 µg/mL; in “in vivo [6]” (setting [12]), 1550 ± 390 ng/mL; in series [7] (setting [11]), 0.43 µg/mL. The MRT inf was 93 ± 12.6 h in the series “in vivo [3]” (setting [9]) and 66.2 ± 10.7 h in the series “in vivo [6]” (setting [12]). The figures for the MRT last in “in vivo [3]” (setting [9]) and in the series “in vivo [6]” (setting [12]) were 57.3 ± 1.72 h and 43.7 ± 2.42 h, respectively. Besides, the half-life in “in vivo [3]” (setting [9]) is 2.77 ± 0.419 days; in “in vivo [6]” (setting [12]), 2900 ± 769 min. Also, the “Radioactive compound detected/identified in plasma” value in the series “in vivo [3]” (pig plasma) is reported as “identified; also recorded: detected”; in the series “in vivo [6]” (chicken plasma, single oral ^3H-DVD 10 mg/kg BW) it was “identified; also recorded: detected”. Besides, the “Time at which DVD was still detected in plasma” value in the series “in vivo [3]” (pig plasma, this study) is recorded as 168 h; in series [5] (HPLC-UV, ref Li et al. 15) it was 24 h; in the series “in vivo [6]” (chicken plasma, this study), 168 h; in series [7] (HPLC-UV, ref Li et al. 15), 6 h. The Withdrawal period was 6.74 days in series [4] (kidney), 4.94 days in series [4] (liver), 4.77 days in series [4] (muscle) and 4.58 days in series [4] (skin with fat). Besides, the results for the Tmax in series [5] (setting [11]) and in series [7] (setting [11]) were 3.25 h and 1.04 h, respectively.

Take `COc1ccc(Cc2cnc(N)nc2N)cc1O` [D1, 3′-desmethyl-DVD]: the “AUC0−∞” value in “in vivo [3]” (setting [10]) turned out to be 3.72 ± 0.62 µg·h/mL. Moreover, the “ClB (total body clearance)” value in the series “in vivo [3]” (setting [10]) was determined as 2.76 ± 0.46 L/h/kg. In addition, the “Cmax (maximum drug concentration)” value in “in vivo [3]” (setting [10]) came to 0.24 ± 0.05 µg/mL. The “MRT0−∞” value in the series “in vivo [3]” (setting [10]) is 22.93 ± 1.28 h. Also, in the series “in vivo [3]” (setting [10]), the MRTLast is listed as 15.23 ± 0.25 h. In addition, the “Tmax (time to Cmax from time zero)” value in the series “in vivo [3]” (setting [10]) is 2 h. In “in vivo [3]” (setting [10]), the “Vd (apparent volume of distribution)” value amounted to 70.38 ± 6.67 L/kg. The “t1/2 (elimination half-life)” value in the series “in vivo [3]” (pig plasma, oral ^3H-DVD 10 mg/kg BW, non-compartmental) is recorded as 17.86 ± 1.30 h. Moreover, in “in vivo [3]” (pig plasma), the “Radioactive compound detected/identified in plasma” value is “identified; also recorded: detected”. Moreover, the Concentration in plasma worked out at 0.12 ± 0.03 µg/mL in “in vivo [3]” (0.5 h, ND = below the LOQ); 0.15 ± 0.02 µg/mL in the series “in vivo [3]” (0.67 h); 0.16 ± 0.04 µg/mL in “in vivo [3]” (1 h); 0.19 ± 0.03 µg/mL in the series “in vivo [3]” (1.5 h); 0.24 ± 0.06 µg/mL in “in vivo [3]” (2 h); 0.16 ± 0.02 µg/mL in the series “in vivo [3]” (4 h). Besides, the Concentration in plasma was 0.10 ± 0.02 µg/mL in “in vivo [3]” (6 h); 0.08 ± 0.01 µg/mL in “in vivo [3]” (8 h); 0.08 ± 0.01 µg/mL in the series “in vivo [3]” (12 h); 0.06 ± 0.01 µg/mL in “in vivo [3]” (24 h); 0.02 ± 0.01 µg/mL in “in vivo [3]” (48 h). Besides, the “Metabolite detected in vitro” value in series [8] is “detected”.
